For 86 molecules, XC50 results are on record in ChEMBL document CHEMBL1157539, “Thousands of chemical starting points for antimalarial lead identification” (Nature, 2010).

The test system of the experiment is Plasmodium falciparum. As to the kind of experiment: GSK_TCMDC: Inhibition of Plasmodium falciparum 3D7 in whole erythrocytes, using parasite LDH activity as an index of growth. Format: functional, organism-based. As to conditions: Plasmodium falciparum, 3D7.
For the molecule `COc1ccc(Nc2nc(N/N=C/c3ccc(O)cc3)nc(Nc3ccc([N+](=O)[O-])cc3)n2)cc1`, the XC50 was 1.12 µM.
In the case of `O=[N+]([O-])c1ccc(Nc2nc(N/N=C/c3cc(Cl)cc(Cl)c3O)nc(Nc3ccccc3)n2)cc1` it was 0.671 µM.
The value for `Cc1ccc2nc(C)cc(N/N=C/c3ccccc3[N+](=O)[O-])c2c1` was 0.166 µM; that for `CCN(CC)CCN(Cc1ccc(-c2ccc(C(F)(F)F)cc2)cc1)C(=O)Cn1c(CCc2ccc(F)c(F)c2F)nc(=O)c2cccnc21` was 1.13 µM.
The value for `COc1ccc(Nc2ncc3c(-c4cccc(NC(=O)Cc5ccc(O)cc5)c4)c[nH]c3n2)cc1OC` was 0.57 µM; that for `COc1ccc(Cl)cc1N1CCN(CCCNC(=O)c2ccc(-c3nc4ccc(C(F)(F)F)cc4[nH]3)c(C)c2)CC1` was 0.762 µM; that for `O=C(Nc1ccccc1)c1ccc(-c2cc3ccncc3cc2OC2CCNCC2)s1` was 0.654 µM.
For `COc1ccc(NC(=O)/C=C/c2ccccc2Cl)cc1OCCN1CCN(c2ccncc2)CC1`, the XC50 is 0.728 µM.
In turn, `Cc1cc(N)nc2cc(CNCCc3ccccc3Br)ccc12` returned an XC50 of 0.129 µM.
Molecule `CN(C)CCNCc1nc(-c2ccc3c(Nc4ccc(Cl)cc4F)ccnc3c2)cs1` returned an XC50 of 0.809 µM.
In turn, `COc1ccc(S(=O)(=O)Nc2ccc(C(=O)NCc3ccccc3C(F)(F)F)cc2)cc1N1CCN(CC2CC2)CC1` had an XC50 of 1.15 µM.
In the case of `CC1(C)NC(N)=NC(=N)N1OCOc1cc(Cl)c(Cl)cc1Cl` it was 0.0032 µM.
In the case of `CC1(C)NC(N)=NC(=N)N1OCCc1ccccc1` it was 0.0032 µM.
`COc1cccc(NC(=O)NCCNc2ccnc(Nc3ccc(F)cc3)n2)c1` showed an XC50 of 0.917 µM.
`Cc1cc(N2CCCC2)nc(Nc2ccc(NC(=O)c3ccccc3C)cc2)n1` showed an XC50 of 0.724 µM.
In the case of `CO/C(=C\C=C\c1cc2cc(Cl)c(Cl)cc2[nH]1)C(=O)NCCCN(C)CCN(C)c1ccccc1`, the XC50 came to 0.828 µM.
In the case of `CCOC(=O)c1c(NC(=O)c2ccccc2)sc2c(O)c(CN(CC)CC)ccc12` it was 0.969 µM; in that of `C[C@@H](Nc1nc(NCc2ccccc2)c2sccc2n1)c1ccccc1`, 0.919 µM.
In the case of `O=C(Nc1ccc(Cl)c(Cl)c1)N1CCC(CN2CCC(c3c[nH]c4ccccc34)CC2)CC1` it was 0.295 µM; in that of `COc1cc(C(=O)N2CCN(C(C)C)CC2)ccc1CN(C)CCCN1CCN(c2cccc(Cl)c2Cl)CC1`, 0.776 µM.
In the case of `O=C(Cc1cccc(Cl)c1)Nc1cccc(-c2c[nH]c3nc(Nc4ccccc4)ncc23)c1` it was 0.678 µM; in that of `CCCCCCCc1cc(O)c2c3c(c(=O)oc2c1)CN(C)CC3`, 0.144 µM.
`N[C@@H](Cc1ccc(O)cc1)C(=O)NC(c1ccccc1)c1c(O)ccc2ccccc12` (stereo partly specified) returned an XC50 of 0.694 µM.
The value for `COc1ccc(S(=O)(=O)NC2CCN(c3ccnc4cc(Cl)ccc34)C2)cc1` (stereo unspecified) was 0.493 µM; that for `CC(C)c1cccc(C(C)C)c1NC(=O)NNC(=O)c1ccc(CCN2CCC(c3nc(COCC(F)(F)F)c(-c4ccc(F)cc4)o3)CC2)cc1` was 1.09 µM.
`O=c1cc(NCCCNCc2ccc(C(F)(F)F)c(F)c2)[nH]c2ccccc12`: the XC50 turned out to be 1.19 µM.
In the case of `CC[C@H]1CN2CC[C@H]1C[C@H]2[C@H](O)c1cc(-c2cccc(Cl)c2)nc2ccc(OC)cc12` it was 0.168 µM; in that of `Oc1ccc(-c2ccccc2)cc1CN1CCCCC1`, 0.903 µM; in that of `CCOC(=O)C1=C(C)NC(Cn2ccnc2)=C(C(=O)OCC)C1c1ccc(C(C)(C)C)cc1` (stereo unspecified), 0.807 µM.
Regarding `CN1CCC(N2CCN(Cc3ccc(-c4ccc(-c5nc6ccccc6[nH]5)s4)cc3)CC2)CC1`, the XC50 is 0.14 µM.
In the case of `Cc1onc(-c2ccc(Cl)cc2)c1-c1ccnn1S(=O)(=O)c1ccc(Cl)cc1` it was 0.711 µM; in that of `OC(CNc1ccnc(Nc2cccc(OCCCN3CCOCC3)c2)n1)c1ccccc1` (stereo unspecified), 0.924 µM.
The value for `CCCCNCc1ccc(-c2nc(CN(CCCn3ccnc3)C(=O)C3COc4ccccc4O3)cs2)cc1` (stereo unspecified) was 0.892 µM; that for `COc1cc(C(=O)NC2CCN(Cc3ccccc3)CC2)ccc1-c1nc2c(Cl)cc(C(F)(F)F)cc2[nH]1` was 0.67 µM.
The value for `COc1ccc(-c2cccc(NC(=O)c3cccc(C#N)c3)c2)cc1CN1CCNCC1` was 0.728 µM; that for `CC(=O)N1N=C(c2ccccc2)Sc2c1nc(-c1ccc(Cl)cc1)n2C(C)=O` was 0.986 µM.
With `Cc1cc(O)c2c(c1)OC(C)(C)C=C2C1=CCN(Cc2ccccc2)CC1`, the XC50 was 0.791 µM.
Regarding `CC(O)C1CCCCN1C(=O)c1ccc(-c2ccc(-c3nc4ccccc4[nH]3)s2)cc1` (stereo unspecified), the XC50 is 0.966 µM.
The value for `Fc1ccc2c(NN=Cc3ccccc3F)ccnc2c1` was 0.562 µM; that for `O=C(C1CCN(c2nnnn2-c2ccccc2)CC1)N1CCc2ccccc2C1` was 0.712 µM; that for `COc1cc2c(cc1C(F)(F)F)N(C(=O)Nc1cc(-c3ccncc3)cc(-c3cccnc3)c1)CC2` was 0.619 µM.
In the case of `COc1ccc2nccc([C@@H](O)CN3CCC(NCc4cc5cccnc5[nH]4)CC3)c2n1` it was 0.956 µM; in that of `Cc1cc(N[C@@H](Cc2ccccc2)C(=O)Nc2ccccc2)nc(NCC2CCCCC2)n1`, 0.761 µM.
The value for `COc1ccccc1-c1ccc(CNC(=O)C(CN2CCN(C)CC2)c2ccccc2)cc1` (stereo unspecified) was 1.26 µM; that for `CS(=O)(=O)NCCCNCc1cccc(-c2ccc(-c3nc4ccccc4[nH]3)s2)c1` was 1.08 µM; that for `O=C(NCCN1CCOCC1)c1csc(C2CCCN(C(=O)c3ccc(O)c(-c4cc(Cl)cc(Cl)c4)c3)C2)n1` (stereo unspecified) was 1.03 µM.
Regarding `Cc1ccc(/C=C/C(=O)NCCCCCN2CCN(C(=O)Nc3ccc(Cl)c(C(F)(F)F)c3)CC2)cc1`, the XC50 was determined as 1.11 µM.
The value for `Cc1cccc2nc(-c3ccc(-c4cccc(NC(=O)c5cnn6cccnc56)c4)cc3)[nH]c12` was 0.872 µM.
In the case of `O=C(Nc1cc(Cl)cc(Cl)c1)c1cc(Cl)c(=O)n(Cc2ccc(Cl)cc2)c1` it was 0.863 µM.
The value for `O=C(NCc1ccc(Cl)c(Cl)c1)c1ccc(-c2nc3ccc(F)cc3[nH]2)cc1` was 1.03 µM.
The molecule `O=C(NC1CC1)c1ccc(N2CCC(c3ccccc3)CC2)nc1` yielded an XC50 of 1.11 µM.
In the case of `c1ccc(CNCc2cccc(-c3ccc(-c4nc5ccccc5[nH]4)cc3)c2)cc1`, the XC50 was determined as 0.822 µM.
The value for `Cc1ccccc1C1CCN(C2CCC(NC(=O)/C=C/c3ccc(F)c(F)c3)CC2)CC1` (stereo unspecified) was 0.945 µM; that for `COc1ccc2nccc([C@@H](O)CN3CCC(NCc4cc5cc([N+](=O)[O-])ccc5[nH]4)CC3)c2c1` was 0.117 µM; that for `COc1ccc(NC(=O)[C@H](Cc2ccccc2)Nc2nc(NCCN3CCCC3)ncc2C)cc1` was 0.988 µM.
In the case of `O=C(NC1CCCC1)c1cc2c(=O)n3ccccc3nc2[nH]/c1=N/CCc1ccccc1` it was 0.649 µM.
In the case of `NCc1ccc(-c2ccccc2CNC2CCN(Cc3ccccc3)CC2)cc1` it was 0.765 µM; in that of `CC(C)CN1C(=O)C(c2ccc(F)c(F)c2)=C(O)C1c1ccccc1` (stereo unspecified), 0.185 µM.
In turn, `CCCCCCCCOc1ccc(N2C(N)=NC(N)=NC2(C)C)cc1` showed an XC50 of 0.502 µM.
The value for `NS(=O)(=O)c1cccc(Nc2nc(N[C@@H]3CCNC3)nc3cc[nH]c(=O)c23)c1` was 0.94 µM.
The value for `c1ccc(Oc2ccc(Nc3nc(NCCc4c[nH]cn4)nc(NC4CCCC4)n3)cc2)cc1` was 1.03 µM; that for `OC(c1ccc2ccccc2c1)C1CN(CCc2ccccc2)CCC1(O)c1ccccc1` (stereo unspecified) was 0.554 µM.
In the case of `O=C(Nc1cccc(C(F)(F)F)c1)N1CCOC(CCN2CCC3(CCc4ccccc43)CC2)(c2ccc(Cl)c(Cl)c2)C1` (stereo unspecified) it was 0.736 µM.
In turn, `O=C(Nc1cccc(-c2nn3ccccc3c2-c2ccnc(Nc3cccc(C(F)(F)F)c3)n2)c1)c1c(F)cccc1F` returned an XC50 of 0.627 µM.
The value for `COc1cc(OC)c2c(C)cc(NCCCN3CCOCC3)nc2c1` was 1.07 µM; that for `Cc1cccc(N2C(N)=NC(N)=NC2(C)C)c1C` was 0.759 µM; that for `CCCc1c(Cl)cc(CNCCCNc2nc3ccncc3[nH]2)cc1Cl` was 0.744 µM.
In the case of `Cc1cc(N(C)CCCN2CCCCC2)nc(Nc2ccc(Cl)cc2)n1` it was 0.188 µM; in that of `COC(=O)C(=O)c1c(-c2ccccc2)c(-c2ccc(OC)c(OC)c2)c2c3cc(OC)c(OC)cc3ccn12`, 0.636 µM; in that of `O=C(CC1CCCC1)Nc1ccc2c(c1)CCC2`, 0.868 µM.
In turn, `c1cc2[nH]c(CCCc3nc4cc(C5=N[C@H]6CCCC[C@H]6N5)ccc4[nH]3)nc2cc1C1=N[C@@H]2CCCC[C@@H]2N1` returned an XC50 of 1.24 µM.
In the case of `Cc1cc(N[C@@H](Cc2ccccc2)C(=O)NCc2cccc(F)c2)nc(NCc2ccccc2C)n1`, the XC50 worked out at 0.981 µM.
The value for `Cc1ccc(S(=O)(=O)Nc2ccc(Nc3nccc(Nc4cccc5[nH]ncc45)n3)cc2)cc1` was 0.958 µM; that for `CO/C(=C\C=C\c1cc2cc(Cl)c(Cl)cc2[nH]1)C(=O)NCCCN1CCN(c2cccc(CCO)c2)CC1` was 0.716 µM.
In the case of `CC(C)C(=O)Nc1c(F)cc(F)cc1CCc1ccc(O)cc1` it was 0.504 µM.
In turn, `CCc1c(CCNCCCCCCNCc2ccc3c(c2CC)OCO3)ccc(OC)c1OC` registered an XC50 of 0.246 µM.
In the case of `Fc1ccc2c(NN=CC=Cc3ccccc3)ccnc2c1` it was 0.779 µM.
The molecule `Cc1ccc(Oc2ncccc2C(=O)Nc2cccc3cccnc23)c(C)c1` came in with an XC50 of 0.225 µM.
The value for `O=C(NCCN1CCCC1)c1cccc(-c2ccc(-c3nc4cc(F)ccc4[nH]3)cc2)c1` was 0.722 µM.
In the case of `O=C(Nc1cccc(-c2cccc(-c3nc4cc(F)ccc4[nH]3)c2)c1)c1csnn1` it was 0.788 µM; in that of `O=C(c1cc(-c2cccs2)n[nH]1)N1CCN(S(=O)(=O)c2ccc(Cl)s2)CC1`, 0.868 µM; in that of `Cc1ccc2c(c1)NCC21CCN(C[C@@H](O)C2CCN(c3cc(C#N)ccn3)CC2)CC1C` (stereo partly specified), 0.606 µM.
In the case of `CN1CCN(Cc2ccc(-c3cc4nccc(Nc5ccc(Oc6ccccc6)cc5)c4cc3Cl)o2)CC1` it was 0.979 µM; in that of `OC1CCCN(Cc2cccc(-c3ccc(-c4nc5cc(F)ccc5[nH]4)cc3)c2)C1` (stereo unspecified), 0.78 µM; in that of `Cc1cccc2nc(-c3cccc(-c4ccc(NC(=O)CS(C)(=O)=O)cc4)c3)[nH]c12`, 1 µM.
Regarding `O=C1Nc2cccc3c2C1(CCCN1CCC(c2c[nH]c4cc(C(F)(F)F)ccc24)CC1)CCC3` (stereo unspecified), the XC50 was 0.961 µM.
